For assay [1], the target named is T1, human memapsin 2 (Homo sapiens, UniProt P56817).
T1 construct: The ecto-domain of human memapsin 2 was expressed and purified as described previously (Hong et al., 2000); made in house
In words: Determination of kcat/KM of memapsin 2 substrate peptides (steady-state kinetics and competitive hydrolysis, ESI LC/MS). Format: biochemical. The settings on record: steady-state kinetics, substrate 5 μM to 150 μM, pH 4.0, 37° C. The text has this:
Materials. α-cyan-4 hydroxycinnamic acid, D0- and D6-form acetic anhydride , N-hydroxysuccinimide were purchased from Sigma. Peptide (Des-Ser1)-Cerebellin was purchased from Bachem (Bubendorf, Switzerland). All peptides derived from memapsin 2 potential substrates were synthesized by GenScript (Piscataway, N.J.). The ecto-domain of human memapsin 2 was expressed and purified as described previously (Hong et al., 2000). Monoclonal anti-memapsin 2 antibody 3E7 was purchased from Santa Cruz Biotechnology Inc (Santa Cruz, Calif.). Monoclonal anti-APP antibody 1560, MAB348 and polyclonal anti-APP antibody 5352 were purchased from Millipore (Billerica, Mass.). Monoclonal anti-actin antibody was purchased from Abcam (Cambridge, Mass.).
Determination of kcat/KM of different memapsin 2's substrates. […] Initial velocity was determined by ESI LC/MS, in which the product an substrate peak areas were quantitated. The kinetic parameters, kcat and KM were determined from non-linear regression using Grafit software (Surrey, UK). […] Relative kcat/KM of different substrates were determined by comparing the initial hydrolysis rates to that of VGSC beta 2.
Comparison of the kinetics for peptides derived from memapsin 2 protein substrates. […] The relative kcat/KM values of other twelve peptides were determined from their relative pseudo-first-order hydrolytic rates. […]

In assay [2] the test system is γ-secretase. The assay can be described thus: CTF99 level in APP-transfected CAD cells with γ-secretase inhibitor (Western blot). The settings on record: in both APPIDF and APPSW cells. Format: cell-based, mouse. As for the experimental part:
Cell culture, transfection and analysis of APP processing products. Mouse neuronal CAD cell line was cultured with DMEM/F12 media (Invitrogen, Carlsbad, Calif.) containing 10% fetal bovine serum and 2% penicillin/streptomycin. Transient trransfections were performed using Fugene HD (Roche, Sweden) according to the manufacture's instruction. 24 hours later after transfection, total cell lysate and cell media were collected and 1% of Protease inhibitor was added (Calbiochem, Gibbstown, N.J.). Aβ level in media was assayed by Aβ [1-40] Human Fluorimetric ELISA Kit (invitrogen, Carlsbad, Calif.). Conditioned media or total cell lysate from the transiently transfected cells were subjected to 10% or 10-20% tricine SDS-PAGE gels (Invitrogen, Carlsbad, Calif.), and transferred to PVDF membranes. The blots were probed with antibodies. The western blot analysis was used for determining the levels of full-length APP, APP's proteolytic products and β-actin.
APPIDF and APPSW cells were also similar in cellular processing characteristics. […] CTF99 is increased in both APPIDF and APPSW cells when γ-secretase inhibitor DAPT slowed its degradation (FIG. 4A, second line, right lanes). As expected, APP ectodomain fragment from α-secretase cleavage, sAPPα, decreased in both APPIDF and APPSW cells as compared to that in APPWT cells (FIG. 4A, fourth panel).
On the technique in general: Immunoblotting shows a protein as a band on a membrane.

The structures appear in SMILES notation. Peptide text beside a SMILES is read from it.

T1 sequence (P56817 46-457 limits assumed): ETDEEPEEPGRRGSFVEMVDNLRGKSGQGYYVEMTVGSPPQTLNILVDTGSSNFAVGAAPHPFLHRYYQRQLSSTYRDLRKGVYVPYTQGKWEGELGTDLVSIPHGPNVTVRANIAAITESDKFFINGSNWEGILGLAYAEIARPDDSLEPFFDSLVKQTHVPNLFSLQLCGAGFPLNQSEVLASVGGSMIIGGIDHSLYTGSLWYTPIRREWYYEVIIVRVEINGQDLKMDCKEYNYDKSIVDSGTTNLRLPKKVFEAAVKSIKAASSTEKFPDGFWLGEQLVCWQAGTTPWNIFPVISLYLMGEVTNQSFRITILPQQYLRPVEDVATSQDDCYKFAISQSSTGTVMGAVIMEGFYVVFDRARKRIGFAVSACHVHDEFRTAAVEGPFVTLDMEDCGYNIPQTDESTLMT

For `CC[C@H](C)[C@H](NC(=O)[C@H](CCCCN)NC(=O)CNC(=O)[C@H](Cc1c[nH]cn1)NC(=O)CNC(=O)[C@@H](N)CCCNC(=N)N)C(=O)N[C@@H](Cc1ccc(O)cc1)C(=O)N[C@@H](CC(C)C)C(=O)N[C@@H](CCC(N)=O)C(=O)N[C@H](C(=O)N[C@@H](CC(C)C)C(=O)N[C@@H](CC(C)C)C(=O)O)C(C)C` [VGSC-β2] (H-RGHGKIYLQVLL-OH), the Km in assay [1] is 36.4 µM.
With `C[C@H](NC(=O)Cc1cc(F)cc(F)c1)C(=O)N[C@H](C(=O)OC(C)(C)C)c1ccccc1` [DAPT], the CTF99 level result in assay [2] is on record as “increased”.

The term Km denotes the substrate concentration at which the rate is half of its maximum.

The values above are taken from patent US20120100564A1, “Prediction of Memapsin 2 Cleavage Sites” (priority 2010, published 2012).
